The nature of data set [1]: GSH reactivity in PBS buffer at pH 7.4 assessed as half life. The class given is ADME.
The nature of data set [2]: GSH reactivity in PBS buffer at pH 8 assessed as second-order reaction rate constants upto 200 uM by DTNB assay. The class given is ADME. The conditions noted are these: pH 8, 200 µM.
The target of data set [3] is T1, Carbonic anhydrase 2 (Homo sapiens, UniProt P00918). In words: Binding affinity to carbonic anhydrase II (unknown origin) fragment assessed as rate of protein modification by measuring inactivation rate constant (Kinact).
The target of data set [4] is T1, Carbonic anhydrase 2. As to the kind of experiment: Rate of protein modification at carbonic anhydrase II (unknown origin) fragment assessed as inhibition constant.
The target in data set [5] is T2, Tyrosine-protein kinase ABL1 (Homo sapiens, UniProt P00519). In words: Inhibition of wild type N-terminal His tagged ABL kinase (unknown origin) using fluorescence-labelled substrate by off-chip mobility shift assay.
T2 sequence (P00519 whole entry): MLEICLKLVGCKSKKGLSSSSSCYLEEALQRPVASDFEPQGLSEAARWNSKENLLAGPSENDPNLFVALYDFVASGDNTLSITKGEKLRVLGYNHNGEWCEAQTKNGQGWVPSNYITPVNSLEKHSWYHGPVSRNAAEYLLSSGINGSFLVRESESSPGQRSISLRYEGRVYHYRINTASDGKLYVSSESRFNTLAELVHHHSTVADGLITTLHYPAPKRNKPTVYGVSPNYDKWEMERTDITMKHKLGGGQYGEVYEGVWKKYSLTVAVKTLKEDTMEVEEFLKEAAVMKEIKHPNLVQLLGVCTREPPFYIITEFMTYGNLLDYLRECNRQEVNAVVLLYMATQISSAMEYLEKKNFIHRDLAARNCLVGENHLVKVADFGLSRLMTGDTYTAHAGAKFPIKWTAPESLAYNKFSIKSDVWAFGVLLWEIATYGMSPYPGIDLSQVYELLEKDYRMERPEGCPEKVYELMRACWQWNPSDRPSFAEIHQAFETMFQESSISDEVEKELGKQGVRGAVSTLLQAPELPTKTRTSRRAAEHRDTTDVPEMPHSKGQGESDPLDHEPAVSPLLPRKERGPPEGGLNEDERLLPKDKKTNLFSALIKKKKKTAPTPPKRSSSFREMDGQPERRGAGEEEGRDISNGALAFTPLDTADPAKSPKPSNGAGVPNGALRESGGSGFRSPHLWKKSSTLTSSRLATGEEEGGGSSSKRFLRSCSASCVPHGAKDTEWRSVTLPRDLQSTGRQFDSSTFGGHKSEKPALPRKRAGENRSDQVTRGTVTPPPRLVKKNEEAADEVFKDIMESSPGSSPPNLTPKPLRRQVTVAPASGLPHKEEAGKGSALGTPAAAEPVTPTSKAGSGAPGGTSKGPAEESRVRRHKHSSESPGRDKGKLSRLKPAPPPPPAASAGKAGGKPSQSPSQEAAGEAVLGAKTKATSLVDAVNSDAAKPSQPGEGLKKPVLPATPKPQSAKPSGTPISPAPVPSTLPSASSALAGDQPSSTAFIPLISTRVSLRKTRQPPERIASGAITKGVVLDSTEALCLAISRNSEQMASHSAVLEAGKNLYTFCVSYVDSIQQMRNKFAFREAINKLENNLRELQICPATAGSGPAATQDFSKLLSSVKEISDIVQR
The nature of data set [6]: GSH reactivity in PBS buffer at pH 8 at 14 degC assessed as half life upto 200 uM. In kind it is ADME.
Data set [7] has as its target Replicase polyprotein 1ab (Severe acute respiratory syndrome coronavirus 2, UniProt P0DTD1). As to the kind of experiment: Inhibition of SARS-CoV-2 papain-like protease (PLpro) using fluorogenic peptide substrate by fluorescent assay.
The target in data set [8] is Tyrosine-protein kinase BTK (Homo sapiens, UniProt Q06187). Conditions: A-431, dose 1.0 µM.
Tyrosine-protein kinase BTK, sequence (Q06187 whole entry): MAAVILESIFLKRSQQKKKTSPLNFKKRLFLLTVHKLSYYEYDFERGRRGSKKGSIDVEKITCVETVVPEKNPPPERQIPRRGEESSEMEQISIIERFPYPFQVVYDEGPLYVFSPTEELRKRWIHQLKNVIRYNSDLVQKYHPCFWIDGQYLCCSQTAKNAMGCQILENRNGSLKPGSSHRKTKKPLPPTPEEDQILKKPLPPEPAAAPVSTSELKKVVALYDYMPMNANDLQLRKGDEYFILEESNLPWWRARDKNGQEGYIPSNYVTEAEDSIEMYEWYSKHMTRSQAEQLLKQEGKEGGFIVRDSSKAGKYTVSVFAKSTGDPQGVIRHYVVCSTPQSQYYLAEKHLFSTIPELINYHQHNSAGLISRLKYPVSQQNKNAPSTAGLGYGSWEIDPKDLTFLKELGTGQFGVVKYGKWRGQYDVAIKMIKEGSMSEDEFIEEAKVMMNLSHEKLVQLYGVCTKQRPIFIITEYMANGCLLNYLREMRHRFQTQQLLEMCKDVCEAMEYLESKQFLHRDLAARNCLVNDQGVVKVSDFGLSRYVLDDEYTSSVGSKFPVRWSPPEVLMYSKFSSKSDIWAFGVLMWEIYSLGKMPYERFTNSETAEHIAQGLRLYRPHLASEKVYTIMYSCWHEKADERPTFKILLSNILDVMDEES
The target in data set [9] is T2, Tyrosine-protein kinase ABL1. As to the kind of experiment: Inhibition of recombinant ABL kinase (unknown origin) assessed as inactivation rate constant (Kinact).
Data set [10] shares this target. As to the kind of experiment: Inhibition of recombinant ABL kinase (unknown origin) assessed as inhibition constant.
Data set [11] can be described thus: Reactivity of SuTEx assessed as aryl-AG modifications by measuring half life by HLPC analysis. The class given is physicochemical.
Data set [12] in a line: Chemical stability of the compound in pH 7.4 buffer assessed as half life. In kind it is physicochemical.
Data set [13] can be described thus: Reactivity rate at cyclic sulfonamide assessed as rate constant by CSA sulfenic-acid model. The class given is physicochemical.
Data set [14] in a line: Cytotoxicity against African green monkey Vero E6 cells. In kind it is toxicity, cell-based, Vero C1008. The conditions noted are these: chlorocebus sabaeus.
Data set [15] is described as follows: Reactivity of SuTEx assessed as aryl-LG modifications by measuring half life by HLPC analysis. The class given is physicochemical.

Broadly, the half-life is the time in which the quantity being followed falls by half. On to `CN(C(=O)C12CC1C2)c1ccccc1` (configuration not stated), for which the half-life in data set [1] was 32.7 h.

As to `C=CC(=O)NCc1ccccc1`, in data set [2], the K came to 0.003 M⁻¹ s⁻¹.

The term Ki denotes a measure of affinity in units of concentration, obtained from inhibition or displacement. For the molecule `CC(NC(=O)c1cccc(S(=O)(=O)F)c1)c1cccc(S(N)(=O)=O)c1` (configuration not stated), the Kinact in data set [3] was 0.24 10^-5/s. For the same molecule, in [4], the inhibitory constant (Ki) is 53 µM.

Broadly, the IC50 is the concentration at which inhibition is half-maximal. As for `COc1cc(S(=O)(=O)F)ccc1-c1c[nH]c2ncc(-c3cncc(C(=O)N(C)C)c3)cc12`, the half-maximal inhibitory concentration (IC50) in data set [5] was 0.073 µM.

Regarding `CNS(=O)(=O)OCC(=O)NCc1ccccc1`, the K in data set [2] was found to be 0.029 M⁻¹ s⁻¹. Also, the half-life at up to 200 µM in data set [6] was about 5 h.

As for `NS(=O)(=O)c1ccc(CCNC(=O)Cc2ccc(S(=O)(=O)F)cc2)cc1`, the Kinact in data set [3] is 0.36 10^-5/s. Moreover, the Ki in data set [4] is under 5 µM.

In the case of `O=C(COS(=O)(=O)Nc1ccccc1)NCc1ccccc1`, in [2], the K came out at 0.009 M⁻¹ s⁻¹.

For `C=CCSc1nc2sc3c(c2c(=O)n1CC)CCc1ccccc1-3`, the half-life in data set [1] was 0.683 h. Also, in data set [7], the half-inhibitory concentration (IC50) is 0.8 µM.

Regarding `CC(NC(=O)Cc1ccc(S(=O)(=O)F)cc1)c1cccc(S(N)(=O)=O)c1` (configuration not stated), in data set [3], the Kinact is 0.97 10^-5/s. Also, the Ki in data set [4] is 22 µM.

As for `Nc1ncnc2c1ncn2[C@@H]1O[C@H](CN(CC[C@H](N)C(=O)O)S(=O)(=O)c2ccc(Cl)c([N+](=O)[O-])c2)[C@@H](O)[C@H]1O`, the half-life in [1] is under 0.0333 h.

Regarding `C#Cc1cccc(Oc2ccc(-c3nn(CCc4ccccc4N(C)C(=O)C45CC4C5)c4ncnc(N)c34)cc2)c1` (configuration not stated), in data set [1], the half-life is 32.7 h. Also, the V0 in [8] was 9.7 10^-5/s.

For the molecule `C#CCOCCOCCOc1cccc(N2CCN(C(=O)C(F)(F)Br)CC2)c1`, the half-life in data set [1] came out at 33.4 h.

Regarding `C#Cc1cc(OC)c(-c2ccc3nc(NC(=O)NCO)sc3c2)cc1C=O`, the Kinact in data set [9] was 1.27 10^-3/s. For the same molecule, in data set [10], the Ki is 0.013 µM.

As for `O=C(COS(=O)(=O)Nc1ccc(Br)cc1)NCc1ccccc1`, the K in data set [2] was 0.003 M⁻¹ s⁻¹.

Take `COc1ccc(-c2ncn(S(=O)(=O)c3ccc(-c4ccccc4)cc3)n2)cc1`: the half-life in [11] is 0.288 h.

Regarding `CC#CC1=Nc2ccccc2C(C)(C)O1`, the half-life in data set [1] is 1.37 h; in data set [12], over 167 h.

Turning to `NC(=O)C(F)Br` (configuration not stated), in [1], the half-life came out at 0.15 h.

Consider `NC(=O)C(Cl)Br` (configuration not stated), for which the half-life in data set [1] was under 1.67 h.

Turning to `CC(NS(=O)(=O)c1cccc(S(=O)(=O)F)c1)c1cccc(S(N)(=O)=O)c1` (configuration not stated), the Kinact in data set [3] was 3.9 10^-5/s. For the same molecule, the inhibition constant Ki in [4] was 12 µM.

Turning to `C#CCOCCOCCOc1cccc(N2CCN(C(=O)C(C)(F)Br)CC2)c1` (configuration not stated), the half-life in data set [1] was over 167 h.

On to `C#CCCCC1CCC(=O)CC1=O` (configuration not stated), for which the K in data set [13] worked out at 10 M⁻¹ s⁻¹.

Turning to `COc1ccc(-c2ncn(S(=O)(=O)C3CC3)n2)cc1`, the half-life in data set [11] was over 6 h.

In the case of `COc1cc(OC)cc(C(=O)C23CC2C3)c1` (configuration not stated), the half-life in data set [1] was 32.7 h.

Turning to `C#CCOCCOCCOc1cccc(N2CCN(C(=O)C(F)F)CC2)c1`, the half-life in data set [1] stood at 129 h.

Take `CN(C)S(=O)(=O)OCC(=O)NCc1ccccc1`: the K in [2] was determined as 0.012 M⁻¹ s⁻¹.

Regarding `NS(=O)(=O)c1ccc(CCNS(=O)(=O)c2ccc(S(=O)(=O)F)cc2)cc1`, the Kinact in [3] is 2.1 10^-5/s. Also, in [4], the inhibition constant (Ki) is under 5 µM.

For orientation: CC50 means the concentration that lowers cell viability or growth by half. `C[C@@H](NC(=O)[C@H](c1cccnc1)N(C(=O)C(Cl)Cl)c1ccc(-c2ccccc2)cc1)c1ccccc1` came in with a CC50 in data set [14] of over 100 µM.

Take `C#CCCCN1c2ccccc2C(=O)CS1(=O)=O`: in [13], the K is 1700 M⁻¹ s⁻¹.

As to `COc1ccc(-c2ncn(S(=O)(=O)c3ccc(F)cc3)n2)cc1`, the half-life in data set [15] was determined as 0.237 h.

For the molecule `NC(=O)C(Br)Br`, the half-life in data set [1] was under 1.67 h.

As to `Cc1ccc(S(=O)(=O)OCC(=O)NCc2ccccc2)cc1`, in data set [2], the K amounted to 0.161 M⁻¹ s⁻¹.

Turning to `O=S(=O)(c1ccccc1)C12CC1C2` (configuration not stated), the half-life in data set [1] is 11.8 h.

(Values after ChEMBL document CHEMBL5512664, “Emerging and Re-emerging Warheads for Targeted Covalent Inhibitors: An Update” (J Med Chem, 2024).)
